≈ marks a conversion by molar mass, not a printed value.
Experiments:
[1] = biological target: human α5β3γ2 receptor (α5-GABAA receptor) (Homo sapiens (Human), UniProt P18507+P31644); test: Radioligand (3H-flunitrazepam) competition binding assay, BZD site; details: 3H-flunitrazepam 1 nM; HEK293 membranes expressing human α5β3γ2
Procedure, shortened: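 Membranes from HEK293 cells stably expressing human α2β3γ2 or α5β3γ2 (5 μg protein/well) incubated 1 h at room temperature with 1 nM ^3H-flunitrazepam and 8-point 4-fold compound dilutions; nonspecific binding defined with 10 μM flumazenil. Filter-bound radioactivity counted; Ki derived from fitted IC50.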

[2] = biological target: human α2β3γ2 receptor (α2-GABAA receptor) (Homo sapiens (Human), UniProt P18507+P47869); test: Radioligand (3H-flunitrazepam) competition binding assay, BZD site; α2 vs α5 binding selectivity; details: ratio of Ki at α2β3γ2 to Ki at α5β3γ2
Source text: α, β and γ subunits are essential for the formation of a complete functional GABAA receptor. In this example, HEK293 cell strains stably expressing human α5-GABAA receptor (comprising α5β3γ2 subunit) and α2-GABAA receptor (comprising α2β3γ2 subunit) were constructed and screened, respectively, by liposome transfection method (Felgner, P. L., et al., Proceedings of the National Academy of Sciences, 1987, 84:7413-7417). The specific subunit protein sequences are as follows: α5 subunit (protein sequence can be found in GenBank accession number: NM_000810.3); α2 subunit (protein sequence can be found in GenBank accession number: NM_000807.4); β3 subunit (protein sequence can be found in GenBank accession number: NM_000814.5); γ2 subunit (protein sequence can be found in GenBank accession number: NM_000816.3).
The above cell lines were subcultured. Amplification of α5β3γ2-HEK293 and α2β3γ2-HEK293 cells was used to test the affinity of the compounds to benzodiazepine site (BZD) of the GABAA receptor. During the passage of α5β3γ2-HEK293 cells, some of the suspended cells were spread on a glass slide pretreated with Poly-D-Lysine for electrophysiological testing.
Flunitrazepam is a non-specific reagent that binds to the BZD site efficiently. The affinity of the compounds to the BZD sites of the human α5β3γ2 and α2β3γ2 receptors can be determined by competing the compound with ^3H-flunitrazepam (isotope ^3H-labeled flunitrazepam) for binding to these two receptors.
Membrane preparation: HEK293 cells stably expressing human α5β3γ2 receptor or α2β3γ2 receptor were collected, suspended in 50 mM Tris-HCl buffer (pH=7.4), homogenized on ice by a homogenizer for 20 seconds 10 times, and centrifuged at 4° C., 1000 g for 10 min. The supernatant was collected, and the above steps were repeated. The supernatant was centrifuged (33800 g; centrifuge purchased from Thermo, rotor model: A27-8×50) at 4° C. for 60 min, and the precipitate was resuspended in Tris buffer (50 mM Tris-HCl, 10 mM MgCl2, 0.5 mM EDTA, 10% glycerol). The precipitate was the cell membrane. Protein content was determined by BCA (Bicinchoninic Acid) method (BCA kit from Pierce (Annoron)). The cell membrane was prepared into 1 ml aliquot and stored at −80° C.
Radioligand competition binding assay: the assay was carried out in a 200 μL system (96-well plate from Agilent) with 100 μL of cell membrane. The concentration of ^3H-flunitazepam (from PerkinElmer, lot: NET567250 UC) was 1 nM and the concentration of test compound was in the range 1×10^−5-10^−6 M. Flumazenil (from Tocris; lot: 1318) was used as a control. 1 μL of 2 mM flumazenil (final concentration 10 μM) was added to the Low signal control well (Low control, LC) and 1 μL of DMSO (from Sigma aldrich, lot: 472301) was added to the High signal control well (High control, HC). The final target membrane protein concentration was 5 μg/well. All test compound sample stocks were 10 mM DMSO solutions. The working concentration of the samples is to dilute all samples with DMSO to 0.2 mM, and then perform 4-fold continuous gradient dilution for a total of 8 concentration gradients. The 96-well plate was sealed with a plate sealing membrane and then incubated on a shaker at room temperature for 1 hour. Meanwhile, GF/C filter plate was soaked with a plate soaking buffer (0.3% PEI, polyethyleneimine, purchased from Sigma aldrich, model: P314, stored at 4° C.) for at least 0.5 hours. After completion of binding incubation, the cells were collected with a cell collector onto the GF/C filter plate and washed four times with a plate washing buffer (50 mM Tris-HCl, pH 7.4, stored at 4° C.). […]

[3] = biological target: α5-GABAA receptor (Homo sapiens (Human), UniProt P18507+P31644); test: Whole-cell patch clamp electrophysiology, inverse regulation activity in α5β3γ2-HEK293 cells; type: cell-based; details: compound 100 nM; GABA 0.05-0.06 μM (about EC7-8); clamped at −60 mV; read-out: Inverse regulation efficiency to α5-GABAA receptor
Procedure, shortened: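 HEK293 cells expressing α5β3γ2 recorded whole-cell at −60 mV holding potential, GABA 0.05-0.06 μM (about EC7-8) applied, then compound at 100 nM final with GABA. pH 7.4 extracellular, CsCl-based pipette solution. Inverse regulation efficiency = (Itreatment−Igaba)/(Igaba−Iprebaseline)×100%.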

[4] = Thermodynamic solubility in simulated intestinal fluid (FaSSIF); type: physicochemical; details: simulated intestinal fluid (FaSSIF), thermodynamic from solid, 37° C., 1000 rpm
Method: 50 mM of phosphate buffer, pH=7.4:0.39 g of NaH2PO4·2H2O, 1.4025 g of Na2HPO4 were weighed, placed into an Erlenmeyer flask, dissolved with the addition of 240 ml of water, homogenously mixed, adjusted to pH 7.4 with 10 M NaOH solution, transferred into a 250 ml volumetric flask and diluted with water to the scale.
Simulated intestinal fluid FaSSIF: 54.76 mg of FaSSIF-V2 (Biorelevant, batch. V2FAS-0619-A, lot. V2FAS01) was weighed, and added to 15 ml of buffer, and after dissolution, the solution was made up to 30 ml and left to stand at room temperature for 1 hour for use.
Waters e2695 HPLC high performance liquid chromatography, Mettler XSE105 analytical balance.
Stock solution containing 10 mM of each test compound was formulated using DMSO, diluted into […] standard curve solution using diluent (ACN:PB buffer with a volume ratio of 50:50), and tested by HPLC to obtain a standard curve of concentration vs peak area of each test compound.
Thermodynamic solubility in simulated intestinal fluid (TS in FaSSIF). About 0.3 mg of each sample (test compound) was weighed, added into 1.5 mL of FaSSIF solution, two samples in parallel, shaken at 1000 rpm and 37° C. for 4 hours, and filtered, 1 mL of primary filtrate was discarded, then 400 μL of subsequent filtrate was taken, and tested by using a high performance liquid chromatograph (UV).

[5] = biological target: α5-GABAA receptor (Homo sapiens (Human), UniProt P31644); details: highest concentration of L-655,708; GABA 1 μM; cited from earlier work

Cc1onc(-c2ccc(F)cc2)c1COc1ccc(-c2nnc3n2CCCOC3)nn1 [Compound 21, 3-(6-((3-(4-fluorophenyl)-5-methylisoxazol-4-yl)methoxy)pyridazin-3-yl)-6,7-dihydro-5H,9H-[1,2,4]triazolo[3,4-c][1,4]oxazepane]
Ki [1]: 0.91 nM | Selectivity α2 ki/α5 ki [2]: 51 folds | inhibition at 0.1 µM [3]: 46%

CC(=O)N1CCn2c(nnc2-c2ccc(OCc3c(-c4ccc(F)cc4)noc3C)nc2)C1 [Compound 30, 1-(3-(6-((3-(4-fluorophenyl)-5-methylisoxazol-4-yl)methoxy)pyridin-3-yl)-5,6-dihydro-[1,2,4]triazolo[4,3-a]pyrazin-7(8H)-yl)ethan-1-one]
Ki [1]: 9.86 nM | inhibition at 0.1 µM [3]: 41% | solubility thermodynamic at 4 h [4]: 191 µg/mL (≈ 426 µM)

Cc1onc(-c2ccc(F)cc2)c1COc1ccc(-c2nnc3n2CCN(S(C)(=O)=O)C3)cn1 [Compound 31, 3-(4-fluorophenyl)-5-methyl-4-(((5-(7-(methylsulfonyl)-5,6,7,8-tetrahydro-[1,2,4]triazolo[4,3-a]pyrazin-3-yl)pyridin-2-yl)oxy)methyl)isoxazole]
solubility thermodynamic at 4 h [4]: 32.9 µg/mL (≈ 67.8 µM)

Cc1onc(-c2ccc(F)cc2)c1COc1ccc(N2CCn3ccnc3C2)nn1 [Compound 35, 4-(((6-(5,6-dihydroimidazo [1,2-a]pyrazin-7(8H)-yl)pyridazin-3-yl)oxy)methyl)-3-(4-fluorophenyl)-5-methylisoxazole]
Ki [1]: 1.44 nM | Selectivity α2 ki/α5 ki [2]: 35.8 folds | inhibition at 0.1 µM [3]: 49%

Cc1onc(-c2ccc(F)cc2)c1COc1ccc(N2CCn3c(C)nnc3C2=O)nn1 [Compound 36, 7-(6-((3-(4-fluorophenyl)-5-methylisoxazol-4-yl)methoxy)pyridazin-3-yl)-3-methyl-6,7-dihydro-[1,2,4]triazolo[4,3-a]pyrazin-8(H)-one]
Ki [1]: 3.39 nM | Selectivity α2 ki/α5 ki [2]: 46.9 folds | inhibition at 0.1 µM [3]: 45%

CCOC(=O)c1ncn2c1[C@@H]1CCCN1C(=O)c1cc(OC)ccc1-2 [L-655,708]
Inhibition of GABA-induced current [5]: 15%

Cc1noc(-c2ccc(OCc3c(-c4ccccc4)noc3C)nc2)n1 [WO2009071476, Example 245, reference compound]
solubility thermodynamic at 4 h [4]: 0.9 µg/mL (≈ 2.58 µM)
